Assay results as given in the supplement of paper PMC11451515.

Test system: SEM cells
Assay: cell viability relative to DMSO control; higher = less cytotoxic
Settings: 48 h
Outline: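 Cells were incubated for 48 h at 37°C before CellTiter-Glo One luminescence was read. The cells were NOMO1 or SEM (500 cells/well) or P12-Ichikawa (1000 cells/well) leukemia cells, adapted for at least four passages in each medium and seeded in 1536-well plates (5 μl). Dosing used library compounds in DMSO applied by pin over 11 threefold points, 47 μM to 0.79 nM. Viability is the per-plate percentage of DMSO wells, with cell-free wells as background.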

[1] = HPLM + 10% dialyzed FBS, 0.000781 µM
[2] = HPLM + 10% dialyzed FBS, 0.00234 µM
[3] = HPLM + 10% dialyzed FBS, 0.00702 µM
[4] = HPLM + 10% dialyzed FBS, 0.0211 µM
[5] = HPLM + 10% dialyzed FBS, 0.0632 µM
[6] = HPLM + 10% dialyzed FBS, 0.19 µM
[7] = HPLM + 10% dialyzed FBS, 0.569 µM
[8] = HPLM + 10% dialyzed FBS, 1.71 µM
[9] = HPLM + 10% dialyzed FBS, 5.12 µM
[10] = HPLM + 10% dialyzed FBS, 15.4 µM
[11] = HPLM + 10% dialyzed FBS, 46.1 µM
[12] = RPMI 5 mM glucose + 10% FBS, 0.000781 µM
[13] = RPMI 5 mM glucose + 10% FBS, 0.00234 µM
[14] = RPMI 5 mM glucose + 10% FBS, 0.00702 µM
[15] = RPMI 5 mM glucose + 10% FBS, 0.0211 µM
[16] = RPMI 5 mM glucose + 10% FBS, 0.0632 µM
[17] = RPMI 5 mM glucose + 10% FBS, 0.19 µM
[18] = RPMI 5 mM glucose + 10% FBS, 0.569 µM
[19] = RPMI 5 mM glucose + 10% FBS, 1.71 µM
[20] = RPMI 5 mM glucose + 10% FBS, 5.12 µM
[21] = RPMI 5 mM glucose + 10% FBS, 15.4 µM
[22] = RPMI 5 mM glucose + 10% FBS, 46.1 µM
[23] = RPMI 5 mM glucose + 10% dialyzed FBS, 0.000781 µM
[24] = RPMI 5 mM glucose + 10% dialyzed FBS, 0.00234 µM
[25] = RPMI 5 mM glucose + 10% dialyzed FBS, 0.00702 µM
[26] = RPMI 5 mM glucose + 10% dialyzed FBS, 0.0211 µM
[27] = RPMI 5 mM glucose + 10% dialyzed FBS, 0.0632 µM
[28] = RPMI 5 mM glucose + 10% dialyzed FBS, 0.19 µM
[29] = RPMI 5 mM glucose + 10% dialyzed FBS, 0.569 µM
[30] = RPMI 5 mM glucose + 10% dialyzed FBS, 1.71 µM
[31] = RPMI 5 mM glucose + 10% dialyzed FBS, 5.12 µM
[32] = RPMI 5 mM glucose + 10% dialyzed FBS, 15.4 µM
[33] = RPMI 5 mM glucose + 10% dialyzed FBS, 46.1 µM

SMILES	cell viability [1] [%]	cell viability [2] [%]	cell viability [3] [%]	cell viability [4] [%]	cell viability [5] [%]	cell viability [6] [%]	cell viability [7] [%]	cell viability [8] [%]	cell viability [9] [%]	cell viability [10] [%]	cell viability [11] [%]	cell viability [12] [%]	cell viability [13] [%]	cell viability [14] [%]	cell viability [15] [%]	cell viability [16] [%]	cell viability [17] [%]	cell viability [18] [%]	cell viability [19] [%]	cell viability [20] [%]	cell viability [21] [%]	cell viability [22] [%]	cell viability [23] [%]	cell viability [24] [%]	cell viability [25] [%]	cell viability [26] [%]	cell viability [27] [%]	cell viability [28] [%]	cell viability [29] [%]	cell viability [30] [%]	cell viability [31] [%]	cell viability [32] [%]	cell viability [33] [%]
COc1ccc(CC2NCCc3cc(OC)c(OC)cc32)cc1OC (stereo not given)	89.6	93	86.6	85.3	65.7	94.2	93.3	93.7	88.4	79.5	15.4	85.2	84	82.2	97.4	82.4	99.1	88.5	93.5	97.5	47	12.8	85.9	78.6	90.7	87.3	71.4	98.2	105	99.9	95.2	66.8	19.3
CCN(CC)CC#CCOC(=O)C(O)(c1ccccc1)C1CCCCC1 (stereo not given)	108	109	98.1	92.4	115	111	124	121	105	129	98.5	108	117	126	80	115	121	118	120	125	104	102	117	112	145	83.3	126	132	142	120	135	129	99.3
ClC1=C(N\C2=N\CCN2)C3=NSN=C3C=C1	77.6	91.6	107	69.7	97.8	105	102	111	115	116	113	93.7	111	115	74.6	121	114	114	109	117	126	126	94.2	105	110	69.1	120	122	129	121	118	137	137
CC\1=C/C=C\C=[N]1[Pt](N)(Cl)Cl	82	79.2	91.4	96.5	102	84.1	89.5	89	98.1	83.6	85.1	99.2	119	126	108	119	124	114	109	110	120	58	80.5	90.5	97.1	100	98.1	91.4	87.3	83	91.5	79.5	55.9
C[C@]\12CC[C@H](O)CC1=C/CC3C2CC[C@@]\4(C)C3C\C=C4[N]5C=NC6=C5C=CC=C6 (stereo not given in full)	90.4	82.4	99.7	103	61.4	97.7	109	115	109	114	101	96.1	93.3	101	121	96.6	97	109	115	117	113	104	99.8	88.9	106	115	102	103	108	119	109	109	112
CCCCCCCCCCCCCCCCCCCCCCO	104	95	119	116	110	110	111	127	87.8	123	132	122	113	135	133	129	146	153	156	98.4	138	155	102	98.1	120	123	118	115	118	132	87	116	138
COC1=CC=CC=C1C2=CC=CC(=C2)C/3=C(O)/C4=CC(=C(Cl)C=C4NC3=O)C#N	79.2	92.5	88.2	93.5	101	97.5	92.1	85.7	39.6	9.1	4.47	73.4	89.9	90.7	103	83	81.3	63.9	48	7.21	4.33	2.82	87.3	102	92.9	98.7	93.4	102	93.4	69	21.6	7.81	3.41
Cc1cc(OCCCc2c(C(=O)O)n(Cc3cccnc3)c3c(-c4c(COc5ccc(N6CCN([S+](C)(=O)[O-])CC6)cc5)nn(C)c4C)cccc23)cc(C)c1Cl	102	94.1	105	101	89.4	91.8	100	93.3	84.9	81.5	62.2	112	116	133	106	105	113	112	96.9	111	91.2	67.4	86.7	94.5	96.1	104	102	110	90.7	91.7	89.8	76.4	53.1
CNC1CCC(N(Cc2cccc(-c3ccncc3)c2)C(=O)c2sc3ccccc3c2Cl)CC1 (stereo not given)	86.2	93.2	104	90.6	87.9	105	95.5	25.6	4.92	3.48	2.45	90.1	83.7	100	114	88.5	97.4	18.2	6.65	5.64	3.32	1.88	76.6	82.9	95.5	98.5	77.7	99.1	81.6	6.38	5.65	3.68	2.48
CCCCCOC(=O)NC\1=N\C(=O)N(\C=C1F)[C@@H]2O[C@H](C)[C@@H](O)[C@H]2O	94	111	116	125	109	112	120	114	106	101	100	104	89.8	95.7	109	107	88.7	98.1	98.1	98.4	94.4	85.8	96.6	92.1	105	95.9	106	109	95.6	108	96.8	93.7	86.2
FC(F)(F)c1ccc(/C=C/c2nc(COc3ccc(CCCCn4ccnn4)cc3)co2)cc1	116	119	123	108	103	111	109	108	103	109	98.7	117	103	116	95.3	105	78.3	104	81	94.2	94.4	85.7	110	124	103	91.3	95.9	86	82.3	84.9	79.3	70.9	84
OC1=CC=C(C=C1)\C2=C\OC3=C(C=CC(=C3)O)C2=O	102	96.6	103	109	114	102	104	102	108	101	94.5	100	89.9	109	104	107	96.5	99.4	104	112	96.7	104	96.7	97.1	109	118	101	101	107	112	110	101	104
CN(C)CCOc1cc(-c2cn[nH]c2)ccc1NC(=O)C1COc2ccccc2O1 (stereo not given)	87.1	84.6	101	105	106	106	98.5	102	80.1	71.7	56.2	101	95	108	94.9	118	90.7	103	96	105	69.3	61.3	107	101	110	108	94.6	104	93.1	102	98.3	71.8	68.9
C#Cc1cccc(Nc2ncnc3cc(OCCOC)c(OCCOC)cc23)c1	93.5	95.7	90.4	95.2	102	104	92.9	94.7	71.5	83	32.9	119	133	120	128	114	119	97.1	115	77.9	107	27.4	86.8	104	90.5	99.2	90.2	93.6	87.5	77.9	59.7	68.6	19.9
COC1=CC2=NC=CC(=C2C=C1)OC3=CN=C(NC(=O)C/4=C(C)/N(CC(C)(C)O)N(C4=O)C5=CC=CC=C5)C=C3	82.3	84.7	63.1	83.6	89.4	86.1	79.1	52.1	32.7	36.4	31	108	96.2	91.6	108	103	99	82	60.9	29.3	36	31	74.1	82.1	76.7	77.8	79.4	80	60.5	50.3	32.8	33.2	27.4
